In article PMC5617480 (Oncotarget, 2017):

Tests used:
BEL-7404 cells = assay: Senescence induction (SA-β-Gal staining); assay type: cell-based, human; conditions: BEL-7404, 2.0 μM, 7 d, compared with complexes 4 and 5
Method: Platinum(II)-based drugs were widely used in anticancer chemotherapies, therefore, we performed experiments to test the potency of chiral platinum(II) complexes 4–6 for inducing senescence and apoptosis in BEL-7404 cells. […] We next investigated the effect of complexes 4–6 on the induction of apoptosis. BEL-7404 cells were incubated with complexes 4 (10 and 20 μM), 5 (10 and 20 μM) and 6 (5, 10 and 20 μM) for 24 h, respectively, and then these cells staining with PI and Annexin-V-FITC were determined by flow cytometry (Figure 3A and Supplementary Figure 18). […] Cells were treated with complexes 4–6 at 10 μM for 48 h, the cell cycle arrest was determined by using flow cytometry. […]
(§1) Apoptosis analysis c-myc antibody, or anti-β-actin primary antibody and the Apoptosis was detected by flow cytometric analysis corresponding secondary antibody were used to detect of annexin V staining. […] Then, cells were incubated with annexin V-FITC and PI for 1.0 h at Staining for SA-β-Gal activity was carried out room temperature in the dark and immediately analyzed according to Moore and Chen reports. […] The data are presented as biparametric After the long-term incubation with complexes 4–6, the dot plots showing PI red fluorescence vs annexin V-FITC growth medium was aspirated and the BEL-7404 cells green fluorescence. were fixed in 2% formaldehyde/0.2% glutaraldehyde for 15.0 min at room temperature. […]

hTERT and c-myc = assay: Western blot and RT-PCR of hTERT and c-myc in BEL-7404 cells; assay type: cell-based, human; conditions: BEL-7404, 10 μM, 24 h, compared to complexes 4 and 5
Method: To further investigate the mechanism(s) how chiral platinum(II) complexes regulate telomerase activity, two genes (hTERT and c-myc) critically associated with telomerase activation were investigated. BEL-7404 cells were treated with chiral platinum(II) complexes 4–6 at 10 μM for 24 h, and then western blot and RT-PCR were performed to exam the expression of hTERT and c-myc at mRNA and protein levels. […] We further generated a GFP reporter system linked with c-myc or hTRET promotor which bears G4 DNA sequence. The reporter plasmids were transfected into BEL-7404 cells, and then the cells were treated with 10 μM chiral platinum(II) complexes for 24 h.
as §1

For cis-[PtCl2(S-(–)-FOA)] [complex 6], the “level of senescence (β-galactosidase stain)” value (BEL-7404 cells) was “higher level of senescence” and the “expression of hTERT and c-myc at mRNA and protein levels” value (hTERT and c-myc) was “significantly attenuate”.
